Target: T1, WT EhV1 (A3B3DF complex, V1-ATPase from Enterococcus hirae) (Enterococcus hirae, UniProt Q08636+Q08637)
T1 construct: gene ntpA
Experiment: single-molecule rotation, ADP-dependent backward steps and pause durations
Format: biochemical
Conditions: ATPγS-driven rotation; 10-100 μM ATPγS, 1-300 μM ADP, no ADP-quenching system, pH 6.5

Nc1ncnc2c1ncn2[C@@H]1O[C@H](COP(=O)(O)OP(=O)(O)O)[C@@H](O)[C@H]1O [ADP]
single-molecule rotation, ADP-dependent backward steps and pause durations: the addition of ADP causes frequent backward steps during the rotation

From PMC6851342 (The Journal of Biological Chemistry, 2019)
